Assay results taken from patent US20120045393A1 (priority 2009, published 2012).

What was measured:
[1] = mouse, in vivo, 10 min
Experimental: In addition, at both 2 and 10 min post injection, blood samples from two mice were collected. The collected blood samples at each time point were pooled and treated with two times their volume with ice-cooled methanol, and then the mixture was centrifuged at 4° C. for 20 min at 20,000×g to precipitate proteins. The supernatant was collected and the organic solvent in the solution was removed by speed-vacuum for 60 min. The concentrated supernatant was assayed by HPLC.

in vitro = in vitro ADME, mouse
Experimental: Livers from 10 female Tac:NCr:Foxn1^nu/nu mice were excised, rinsed with ice cold PBS (no Ca^++ or Mg^++) and weighed. The tissues were minced with scissors in Petri dishes on ice with Tris buffered saline (Pierce BupH™ Tris buffered saline packs, #28376; 25 mM Tris, 150 mM NaCl, pH 7.2). After mincing, the tissues were dounce homogenized, and the total volume adjusted with ice cold Tris buffer (4 mL for every gram of excised tissue). The homogenate was centrifuged at ˜4000×g for 10 min at 4° C. The supernatants were aliquoted into Eppendorf tubes on ice (200 and 100 μl volumes) and stored at −80° C. Kidney homogenates were similarly prepared. […] The mixture was centrifuged at 4° C. for 20 min at 20,000×g to precipitate the protein; 10 μL (˜7.6 μCi) of the supernatant was injected into the HPLC for the analysis. […] Peaks at these retention times were also observed in the in vivo plasma sample (FIG. 1). […] The final concentration for the Lu-BRU-2813 in the homogenate sample solution was ˜0.4 mg/mL. After 60 min incubation, the sample was immediately cooled on ice, and then 0.48 mL of ice-cooled methanol was added. The sample was centrifuged at 4° C. for 20 min at 20,000×g to precipitate the protein. The supernatant was collected, concentrated using a speed vacuum to remove organic solvents, and then analyzed by LC/MS.

EFO-27 cells = assay: Internalization/efflux studies in EFO-27 cells; type: cell-based, human
How it was run: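 EFO-27 cells incubated 40 min at 37° C with ^177Lu-LHRH II or ^125I-LHRH II ([^125I-Tyr^8]BRU-2477) at 3.0 μCi/mL, washed, then kept in fresh medium. At 0, 15, 30, 60 and 120 min radioactivity split into membrane-bound, internalized and efflux fractions.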

[2] = test system: PC-3 (human prostate cancer) cells; assay: Internalization/efflux studies in PC-3 cells; type: cell-based
Experimental: Internalization/Efflux Studies: The internalization and efflux studies were carried out following the general procedure. Basically, ^177Lu-LHRH II or ^125I-LHRH II ([^125I-Tyr^8]BRU-2477) (75 uL, 3.0 μCi/mL) was added to the EFO-27 or PC-3 cells. The cells were incubated for 40 min at 37° C. The unbound radioactivity was washed off (4×). Following addition of fresh medium, the cells were further incubated for up to 2 h. At various time points (15, 30, 60 & 120 min) the distribution of radioactivity (membrane-bound, internalized, and efflux) was determined
To determine whether prostate cancer cells (PC-3) behave differently from EFO-27 cells, internalization and efflux studies were carried out with ^177Lu-BRU-2813 using both cell lines.

[3] = In vitro metabolic stability in mouse liver homogenate at 37° C.; type: in vitro ADME
Experimental: Livers from 10 female Tac:NCr:Foxn1^nu/nu mice were excised, rinsed with ice cold PBS (no Ca^++ or Mg^++) and weighed. The tissues were minced with scissors in Petri dishes on ice with Tris buffered saline (Pierce BupH™ Tris buffered saline packs, #28376; 25 mM Tris, 150 mM NaCl, pH 7.2). After mincing, the tissues were dounce homogenized, and the total volume adjusted with ice cold Tris buffer (4 mL for every gram of excised tissue). The homogenate was centrifuged at ˜4000×g for 10 min at 4° C. The supernatants were aliquoted into Eppendorf tubes on ice (200 and 100 μl volumes) and stored at −80° C. Kidney homogenates were similarly prepared. […] The mixture was centrifuged at 4° C. for 20 min at 20,000×g to precipitate the protein; 10 μL (˜7.6 μCi) of the supernatant was injected into the HPLC for the analysis. […] Peaks at these retention times were also observed in the in vivo plasma sample (FIG. 1). […] After 0 and 60 min, the sample was removed from the incubator, immediately cooled on ice and 2 μL of 10 mM EDTA and 0.2 mL of ice-cooled MeOH were added, mixing after each addition. The proteins in the sample were separated by centrifugation at 14,000 rpm for 20 min. The supernatant was harvested and, in the samples spiked with the ^177Lu-analog, the radioactivity was measured using a Capintec dose calibrator to determine recovery. The sample was then analyzed by HPLC. […] After 0 and 60 min, the sample was removed from the incubator, immediately cooled on ice and 2 μL of 10 mM EDTA and 0.24 mL of ice-cooled methanol was added, mixing after each addition. The proteins in the sample were separated by centrifugation at 14,000 rpm for 20 min. The supernatant was collected and analyzed by LC/MS as described earlier herein.

[4] = test system: EFO-27 human ovarian cancer cells (LHRH binding sites); assay: Direct binding/uptake of 177Lu-labeled LHRH-II analogs to EFO-27 cells; details: 177Lu-labeled, 4° C., 1 h, single concentration
Experimental: All reagents and chemicals were obtained from Sigma unless otherwise specified. LHRH analogs and ^177Lu-LHRH-II analogs were prepared by in-house chemists, as described elsewhere in the application. ^177Lu-LHRH-II analogs were not HPLC purified, as they had been prepared using formulation conditions that yielded high RCP without the need for purification. […] The HPLC-purified material was taken in a stabilizing buffer containing 5% lactose, 0.1% L-cysteine hydrochloride and 800 KIU/mL aprotinin and received as a lyophilized product and stored at −70° C. This was reconstituted in distilled water, aliquoted and stored at −70° C. The radioactivity was determined using Microplate Scintillation counter (Wallac Microbeta Trilux).
For the binding assay, EFO-27 cells were seeded onto 96-well clear flat-bottom tissue-culture-treated plates at 15,000/well density in the growth medium and used for assay on day 2 post-seeding. Cells were routinely checked for confluence and contamination and cell count was done occasionally to ensure consistency in cell numbers.
Direct Binding: Direct binding studies were carried out by incubating appropriate ^177Lu-labeled compounds with EFO-27 cells at 4° C. for 1 h followed by washing off the unbound radioactivity. Non-specific binding was determined by incubating the ^177Lu-LHRH-II analogs in the presence of a large excess (30 uM) of cold (unlabeled) LHRH-II analogs. A 96-well plate format was used.

[5] = female, Tac:NCr:Foxn1nu/nu, mouse, tissue homogenate, pH 7.2

SMILES: N=C(N)NCCC[C@H](NC(=O)[C@@H](Cc1ccc2ccccc2c1)NC(=O)CN1CCN(CC(=O)O)CCN(CC(=O)O)CCN(CC(=O)O)CC1)C(=O)N[C@@H](Cc1c[nH]c2ccccc12)C(=O)N[C@@H](CO)C(=O)N[C@@H](Cc1cnc[nH]1)C(=O)N[C@H](CCCNC(=N)N)C(=O)N[C@@H](Cc1c[nH]c2ccccc12)C(=O)N[C@@H](Cc1ccc(C(=O)c2ccccc2)cc1)C(=O)N1CCC[C@H]1C(=O)NNC(N)=O [177Lu-BRU-2813, Lu-DOTA-Dnal2-Arg-Trp-Ser-His-Darg-Trp-Bpa4-Pro-azaGly-NH2, metal not drawn]
- radioactivity remaining in the plasma still in parent form [1]: 66%
- metabolism in kidney homogenate (in vitro): Extensive metabolism was seen
- remaining at 10 min, 2.3 mCi/mL (in vitro; female, Tac:NCr:Foxn1nu/nu, mouse, other tissue homogenate, pH 7.2): 2.4%
- cell surface (membrane) binding (EFO-27 cells; % of the total bound): 60-65%
- initial internalization (EFO-27 cells; % of total bound (cell-associated) radioactivity, T=0): 27%
- efflux (EFO-27 cells; in 1 h): 75-80%
- initial internalization ([2]; % of cell-associated counts): 25%
- cell surface activity ([2]; % of the total bound): 60-65%
- efflux ([2]; in 1 h): 75-80%
- metabolism in liver homogenate [3]: Extensive metabolism was seen
- remaining at 10 min, 2.3 mCi/mL [3, 5]: 18.3%
- remaining at 1 h, 0.3 mg/mL [3, 5]: 12.4 ± 8.7%
- direct binding / uptake [4]: 19%
- direct binding / uptake ([4]; listed as Lu-BRU-2813): 18.8%
